According to patent US10792311B2, “Stimulation of ovarian follicle development and oocyte maturation” (The Board of Trustees of the Leland Stanford Junior …, priority 2011, dated 2020):

Experiments:
[1] = test system: human ovarian cortical fragments; experiment: Xenografts of human ovarian cortical fragments; format: in vivo
[2] = test system: granulosa cells from mice at day 21 of age; experiment: cGMP and cAMP production by cultured granulosa cells; format: cell-based; details: day 21 mice, 2 h
Protocol: (§1) Stimulation of cGMP, but not cAMP, production by cultured ovarian somatic cells: Because the NPRB receptors mediated cGMP production stimulated by the CNP ligand, we isolated somatic cells from ovaries of mice at day 13 of age and granulosa cells from mice at day 21 of age before treatment with increasing doses of CNP or a high dose (30 nM) of ANP for 2 h. Media content of both cGMP and cAMP were determined by RIA.

preantral follicles [3] = experiment: In vivo treatment of juvenile mice (day 13) with CNP followed by eCG/hCG; details: day 13 mice
Protocol: In vivo treatment with CNP promoted follicle development for ovulation and subsequent pregnancy in juvenile, prepubertal, and adult mice: To test the ability CNP to stimulate preantral follicle development in vivo, juvenile mice at day 13 of age were treated i.p. with CNP daily for 4 days. This was followed by a single i.p. injection of eCG for 2 more days before determination of ovarian weight. […] Some of these animals were further treated with an ovulatory dose of hCG to check ovulation efficiency.
(§2) In vivo treatment with CNP, ovulation, and pregnancy: Infantile mice at day 13 of age were treated with CNP (20 ug/kg body weight) i.p. daily for 4 days. This was followed by a single injection of eCG (5 IU) for 2 days to stimulate penultimate follicle maturation before collection of ovaries for weighting and histological analyses. Some animals were further treated with an ovulatory dose (5 IU) of hCG and oocytes in oviducts were monitored at 16 h later to evaluate ovulation efficiency. To test the effects of CNP on early antral follicle growth, prepubertal mice at day 21 of age were treated intraperitoneally with CNP (50 ug/kg body weight) daily for four days to stimulate preovulatory follicle development, followed by the injection of an ovulatory dose (2.5 IU) of hCG. At 16 h later, number of ovulated oocytes was determined. Mature oocytes obtained from CNP-pretreated animals were used for in vitro fertilization. Sperm from CD1 male mice (10-12 weeks old) were collected into human tubal fluid media (Millipore) and incubated for 1 h at 37 C. Oocytes were fertilized with sperm (2-3×10^5/ml) for 6 h and inseminated oocytes were transfer into KSOM-AA medium (Millipore) to allow development into blastocysts. Some of the CNP-pretreated females were mated with fertile males for the monitoring of pregnancy and the delivery of pups.

[4] = test system: somatic cells from ovaries of mice at day 13 of age; experiment: cGMP and cAMP production by cultured somatic cells; format: cell-based; details: day 13 mice, 2 h
Protocol: as §1

[5] = short term infusion in humans, supraphysiological levels in plasma; cited from earlier work
ovaries from day 10 mice = experiment: Ovarian explant cultures treated with CNP and/or FSH; format: cell-based; details: 4 days culture
Protocol: Ovarian explant cultures: Ovaries from day 10 mice were placed on culture plate inserts (Millipore, Bedford, Mass.) and cultured in 400 μl of DMEM/F12 containing 0.1% BSA (Sigma), 0.1% Albumax II, insulin-transferrin-selenium, 0.05 mg/ml L-ascorbic acid and penicillin-streptomycin under the membrane insert to cover ovaries with a thin layer of medium. […] Some explants were also treated with a pan-specific protein kinase G inhibitor, Rp-8-Br-PET-cGMPS (BioLog, Bremen, Germany). At the end of culture, ovaries were fixed in Bouin's solution, paraffin embedded, and cut into continuous sections before staining with hematoxylin and eosin.

preantral follicles [6] = experiment: Preantral follicle culture; format: cell-based, mice
From the text: CNP treatment promoted the growth of preantral follicles and cultured ovarian explants: Preantral follicles (125-135 um in diameter) were isolated from ovaries of mice at day 13 of age and treated with different hormones for four days with daily monitoring of follicle diameters. […] In contrast, treatment with ANP was ineffective.
Dissection follicles of different sizes and culturing of preantral follicles: For RT-PCR analyses, early secondary follicles of 90-140 um in diameters were isolated from mice at day 13 of age whereas antral follicles (300-400 um in diameter) were isolated from prepubertal mice at day 23 of age. Preovulatory follicles (500-600 um in diameter) were isolated from prepubertal mice treated with eCG (5 IU). For follicle cultures, preantral follicles (125-145 um in diameter) were isolated from mice at day 13 of age and cultured individually in 96 well plates containing alpha-MEM (100 ul/well) with penicillin and streptomycin together with insulin, transferrin and selenium. […] The media were changed every two days and follicle growth was monitored daily by measuring follicle diameters.

[7] = Observation of abnormalities after 4 days of CNP treatment; format: in vivo, mice; details: present dosages and injection protocols
From the text: CNP acts exclusively through NPRB whereas ANP and BNP act through NPRA. […] The apparent lack of side effects using the present low doses of CNP is consistent with earlier reports showing minimal cardiac and renal actions using physiological concentrations of CNP.

early antral follicles = experiment: In vivo treatment of prepubertal mice (day 21) with CNP followed by hCG, in vitro fertilization, mating
Protocol: To further test the ability of CNP to stimulate the development of early antral follicles to the preovulatory stage, prepubertal mice at day 21 days of age were treated i.p. with CNP daily for 4 days followed by a single injection of an ovulatory dose of hCG. At […] after hCG treatment, the number of ovulated mature oocytes were determined.
We further tested if ovulated oocytes retrieved after CNP pretreatment are capable of being fertilized. Oocytes were obtained from oviducts of CNP-pretreated prepubertal mice after hCG treatment and used for in vitro fertilization. We used oocytes obtained from prepubertal mice treated sequential with eCG (2 days) and hCG (16 h) as controls. […] Some prepubertal females pretreated with CNP followed by hCG to induce ovulation were mated with fertile males.
as §2

For “CNP: 22 amino acid peptide cleaved from NPPC precursor; activates natriuretic peptide receptor-B (NPRB)”, which “Follicle growth as revealed by follicle counting” value [1] is on record?
Its value is “stimulated follicle growth”.

What about the cAMP production [2] of the same substance?
The cAMP production was “no changes in cAMP production”.

And the “Media content of cGMP” value ([2]; ANP 30 nM)?
Its value is “dose-dependent increases in media content of cGMP”.

And the “Ovulated oocytes in the oviducts vs controls” value (preantral follicles [3]; CNP, then eCG and hCG)?
Its value is “higher numbers of ovulated oocyte”.

And the “Increase in ovarian weight” value (preantral follicles [3]; i.p. 20 ug/kg daily for 4 days, then eCG 2 days)?
Its value is 56%.

And the “Development of antral follicles (histological analyses)” value (preantral follicles [3]; i.p. daily for 4 days, then eCG)?
The value was “increases in the development of antral follicles”.

And the cAMP production [4]?
Its cAMP production is “no changes in cAMP production”.

What about the “Media content of cGMP” value ([4]; ANP 30 nM) of the same substance?
Its value is “dose-dependent increases in media content of cGMP”.

What about the “Vasodepressor or natriuretic action” value [5] of the same substance?
The value was “not vasodepressor or natriuretic”.

And the “Development of preantral follicles (histological analyses)” value (ovaries from day 10 mice)?
Its value is “promoted the development of preantral follicles”.

And the “Ovarian weights of explants, both CNP and FSH included” value (ovaries from day 10 mice; combined with FSH)?
The value was “additive increases”.

And the “Ovarian weights of explants” value (ovaries from day 10 mice; day 10 ovaries)?
Its value is “dose-dependent increases in ovarian weights”.

What about the “Follicle growth, combined treatment with CNP and FSH” value (preantral follicles [6]; FSH 25 ng/ml) of the same substance?
The value was “additive increases in follicle growth”.

And the “Follicle size compared with 8-bromo-cGMP” value (preantral follicles [6]; four days culture)?
The value was “comparable”.

What about the “Follicle size (diameter)” value (preantral follicles [6]; preantral follicles of day 13 mice, four days) of the same substance?
The value was “dose- and time-dependent increases in follicle size”.

And the Abnormalities following treatment [7]?
The Abnormalities following treatment was “did not observe abnormalities”.

What about the “Number of ovulated oocytes induced by hCG vs saline” value (early antral follicles; day 21 mice, 18 h after hCG) of the same substance?
Its value is “an increase in the number of ovulated oocytes”.

And the Ovarian weight (early antral follicles; day 21 mice, i.p. 50 ug/kg daily for 4 days, then hCG)?
The Ovarian weight was “increased ovarian weight”.

And the “Development of fertilized oocytes to the blastocyst stage vs control oocytes (eCG-hCG)” value (early antral follicles; in vitro fertilization of oocytes of CNP-pretreated prepubertal mice)?
The value was “same efficiency”.

What about the “Pregnancy after mating with fertile males” value (early antral follicles; prepubertal females pretreated with CNP followed by hCG) of the same substance?
The value was “Successful pregnancy was demonstrated followed by the delivery of healthy pups”.
